According to PubChem BioAssay (NCI):
Values joined by “and” are separate entries in the source; they are usually repeats but may differ in a detail not shown here. Equal entries are not always repeated.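 Cultured in 96-well plates, cells were exposed to test compound for 48 hours across five concentrations. GI50 = concentration required for 50% inhibition of growth. TGI marks complete inhibition of growth.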

Assays:
Assay in all cases: growth of human tumour cells (NCI), 48 h
[1] = test system: SNB-75 CNS
[2] = test system: KM12 colon
[3] = test system: M14 melanoma
[4] = test system: U251 CNS
[5] = test system: UACC-62 melanoma
[6] = test system: T-47D breast
[7] = test system: OVCAR-8 ovarian
[8] = test system: CAKI-1 renal
[9] = test system: EKVX NSCLC
[10] = test system: NCI-H226 lung

Row | Structure (SMILES) | TGI [1] | GI50 [2] | TGI [2] | GI50 [3] | TGI [3] | GI50 [4] | TGI [4] | TGI [5] | TGI [6] | GI50 [7] | TGI [7] | GI50 [8] | TGI [8] | TGI [9] | GI50 [10] | TGI [10] | GI50 [1] | GI50 [5] | GI50 [6] | GI50 [9]
1 | C/C(=N\NC(=S)N1CCN(C2CCCCCC2)CC1)c1ccccn1 | 5.09 µM | 0.0229 µM | 3.13 µM | < 0.001 µM | 2.85 µM and 1.2 µM | < 0.001 µM | 3 µM and 2.1 µM | 1.95 µM | 2.22 µM | < 0.001 µM | 7.94 µM and 2.63 µM | 0.155 µM | 3.5 µM | 2.86 µM | 2.88 µM | 2.7 µM |  |  |  | 
2 | Clc1nc(Cl)c2c3c(sc2n1)CCCC3 | > 100 µM | > 100 µM | > 100 µM | 4.49 µM | > 100 µM | > 20 µM | > 100 µM | > 100 µM | > 100 µM | 4.38 µM | > 100 µM | > 100 µM | > 100 µM | > 100 µM | 2.54 µM | > 28.8 µM | > 100 µM | > 100 µM | > 22.1 µM | > 100 µM
3 | O=S1(=O)NC2CCC3NS(=O)(=O)NC4CCC(N1)N4S(=O)(=O)N23 (centres undefined) | > 100 µM |  | > 100 µM |  | > 100 µM |  | > 100 µM | > 100 µM | > 100 µM |  | > 100 µM |  | > 100 µM | > 100 µM |  | > 100 µM |  |  |  | 
4 | CSCC[C@H](NC(=O)[C@H](CC(C)C)NC(=O)[C@@H](Cc1ccccc1)NC(=O)CNC(=O)[C@@H](NC(=O)[C@H](C)NC(=O)[C@H](Cc1c[nH]c2ccccc12)NC(=O)[C@H](CCC(N)=O)NC(=O)[C@H](N)CC(N)=O)C(C)C)C(N)=O | > 12.5 µM |  | > 12.5 µM |  | > 12.5 µM |  | > 12.5 µM | > 12.5 µM | > 12.5 µM |  | > 12.5 µM |  | > 12.5 µM | > 12.5 µM |  | > 12.5 µM |  |  |  | 
5 | C=C1COC(O)(C2OCOC(C3CC(=O)NC(=O)C3)C2O)C1C (centres undefined) | 0.0336 µM and 0.0195 µM | 0.00176 µM | 0.0212 µM | 0.00323 µM | 0.017 µM and 0.0232 µM | 0.00275 µM | 0.0376 µM and 0.0739 µM | 0.0247 µM and 0.131 µM |  | 0.00425 µM and 0.0104 µM | 0.0413 µM and 0.0509 µM | 0.00394 µM and 0.019 µM |  | 0.04 µM and 0.266 µM | 0.00356 µM | 0.019 µM and 0.0216 µM | 0.00332 µM | 0.00275 µM and 0.0134 µM | 0.00457 µM | 0.00507 µM
6 | Cc1cc2nc3ccc(=[N+](C)C)cc-3sc2cc1N | 4.03 µM and 24.5 µM and 3.37 µM | 0.401 µM and 0.771 µM | 2.28 µM and 18.1 µM and 2.95 µM | 0.368 µM and 0.703 µM | 1.38 µM and 9.09 µM and 2.28 µM | 0.357 µM and 0.381 µM | 2.55 µM and 18.9 µM and 2.11 µM | 2.21 µM and 5.49 µM and 4.52 µM | 4.52 µM and 28.8 µM and 6.75 µM | 0.27 µM and 0.8 µM | 1.99 µM and 7.22 µM and 7.3 µM | 2.3 µM and 1.56 µM | 12.8 µM and > 55.9 µM and 10.2 µM | 9.09 µM and 17.2 µM and 8.02 µM | 2.11 µM and 1.82 µM | 9.05 µM and 30.9 µM and 7.69 µM | 1.43 µM and 1.34 µM | 0.541 µM and 1.07 µM | 0.475 µM and 0.722 µM | 2.12 µM and 1.72 µM
7 | N#CC1(Nc2ccc(-c3ccc(NC4(C#N)CCCC4)cc3)cc2)CCCC1 | > 100 µM |  | > 100 µM |  | > 100 µM |  | > 100 µM | > 100 µM | > 100 µM |  | > 100 µM |  | > 100 µM | > 100 µM |  | > 100 µM |  |  |  | 
8 | O=C1C=CC(=Nc2ccccc2)c2ccccc21 | 20 µM |  | 25.6 µM |  | 18.6 µM |  | 20.5 µM | 12.9 µM | 47.9 µM |  | 24.6 µM |  | 38.2 µM | 12.9 µM |  | 28.8 µM |  |  |  | 
9 | NS(=O)(=O)c1ccc(NCc2cnc3ccccc3n2)cc1 | > 100 µM |  | > 100 µM |  | > 100 µM |  | > 100 µM | > 100 µM | > 100 µM |  | > 100 µM |  | > 100 µM | > 100 µM |  | > 100 µM |  |  |  | 
10 | CC1=C(C(=O)Nc2ccc3[nH]ncc3c2)C(c2ccc(Cl)c(Cl)c2)CC(=O)N1 (centres undefined) | > 19.1 µM | > 25 µM | > 25 µM | > 25 µM | > 25 µM | > 25 µM | > 25 µM | > 25 µM | > 25 µM | > 25 µM | > 25 µM | > 16 µM | > 25 µM | > 25 µM | 6.09 µM | > 25 µM | 2.25 µM | 18.1 µM | > 25 µM | > 14.6 µM
11 | c1ccc(CN2CCC3(CC2)SSC2(CCN(Cc4ccccc4)CC2)SS3)cc1 | > 100 µM |  | > 100 µM |  | > 100 µM |  | > 100 µM | > 100 µM | > 100 µM |  | > 100 µM |  | > 100 µM | 62 µM |  | > 100 µM |  |  |  | 
12 | CCOc1ccc2c(C)cc(=O)oc2c1 | > 100 µM |  | > 100 µM |  | > 100 µM |  | > 100 µM | > 100 µM | > 100 µM |  | > 100 µM |  | > 100 µM | > 100 µM |  | > 100 µM |  |  |  | 
13 | O=c1c2c(c3ccccc3n1-c1ccccc1)NC(=S)NC2c1ccc(Cl)cc1 (centres undefined) | 22.6 µM | 1.88 µM | 11.7 µM | 3.19 µM | 16.1 µM | 2.04 µM | 24.8 µM | 10.6 µM | > 100 µM | 4.01 µM | > 100 µM | 3.16 µM | 27.1 µM | 94.4 µM | 5.36 µM | 37.4 µM | 3.54 µM | 1.49 µM | 20 µM | 2.91 µM
14 | O=S(=O)(c1ccc(Br)cc1)N1CCN(S(=O)(=O)c2ccc(Br)cc2)CC1 | > 100 µM |  | > 100 µM |  | > 100 µM |  | > 100 µM | > 100 µM | > 100 µM |  | > 100 µM |  | > 100 µM | > 100 µM |  | > 100 µM |  |  |  | 
15 | C[N+](C)(CCCCCC[N+](C)(C)CCCN1C(=O)c2cc3ccccc3cc2C1=O)CCCN1C(=O)c2cc3ccccc3cc2C1=O | > 37.5 µM | > 37.5 µM | > 37.5 µM | > 37.5 µM | > 37.5 µM | > 37.5 µM | > 37.5 µM | > 37.5 µM | > 37.5 µM | > 37.5 µM | > 37.5 µM | > 37.5 µM | > 37.5 µM | > 37.5 µM | > 37.5 µM | > 37.5 µM | > 37.5 µM | > 37.5 µM | > 37.5 µM | > 37.5 µM
16 | O=c1c2cccc(F)c2sc2c(N3CCNCC3)nc3ccccc3c12 | 2.41 µM | 1.65 µM | 3.17 µM | 1.71 µM | 3.17 µM | 1.39 µM | 2.96 µM | 3.16 µM | 3.59 µM | 1.51 µM | 3.42 µM | 1.35 µM | 2.73 µM | 2.99 µM | 1.65 µM | 3.4 µM | 1.16 µM | 1.66 µM | 1.67 µM | 1.59 µM
17 | C[C@]12CC[C@H]3[C@@H](CCC4=CC(=O)CC[C@@]43C)[C@@H]1CC[C@@H]2C(=O)COS(=O)(=O)c1ccc(Br)cc1 | 41.8 µM |  | 44.8 µM |  | 23.8 µM |  | 26.2 µM | 37.8 µM | 37.5 µM |  | 14.3 µM |  | 19.7 µM | 21.3 µM |  | 39.3 µM |  |  |  | 
